Read-outs that look alike come from different tables or passages of the source.
Legend:
CYP71D20 = settings: 20 to 50 μM substrate, 2 mM NADPH, 1 mg/mL microsomal protein, 30° C.
Experimental: Reactions were carried out in 100 mM Tris-HCl, pH 7.5, to which microsomal protein was added to a final concentration of 1 mg/mL. Reactions were initiated by the addition of 2 mM NADPH. […] After incubations for variable lengths of time at 30° C., the reactions were extracted with two volumes of ethyl acetate. […] GC analysis was routinely performed with an HP5890 GC equipped with a Hewlett-Packard HP-5 capillary column (30 m×0.25 mm, 0.25 μm phase thickness) and FID as described previously (Rising et al., J. Am. Chem. Soc. 122:1861-1866, 2000). GC-MS analysis was performed at the University of Kentucky Mass Spectrometry Facility using a Varian 3400 gas chromatograph and a Finnigan INCOS 50 quadrupole mass selective detector. The GC was equipped with a J&W DB-5 ms capillary column (15 m×0.25 mm, 0.25 μm phase thickness) and run with He as the carrier gas (10 psi.). Splitless injections were done at an injection port temperature of 280° C. The column temperature was maintained at 40° C. for 1 minute and then increased to 280° C. at 10° C. per minute. Following separation by the GC column, samples were introduced directly into the electron impact ionization source. Mass spectra were acquired at 70 eV, scanning from 40-440 Da in 1 second.

[1] = target: T1, 5-epi-aristolochene synthase (EAS) (Nicotiana tabacum, UniProt Q40577); experiment: In vitro activity of purified recombinant EAS with inhibitors; assay type: biochemical
T1 construct: made in house
T1 sequence (Q40577 1-548): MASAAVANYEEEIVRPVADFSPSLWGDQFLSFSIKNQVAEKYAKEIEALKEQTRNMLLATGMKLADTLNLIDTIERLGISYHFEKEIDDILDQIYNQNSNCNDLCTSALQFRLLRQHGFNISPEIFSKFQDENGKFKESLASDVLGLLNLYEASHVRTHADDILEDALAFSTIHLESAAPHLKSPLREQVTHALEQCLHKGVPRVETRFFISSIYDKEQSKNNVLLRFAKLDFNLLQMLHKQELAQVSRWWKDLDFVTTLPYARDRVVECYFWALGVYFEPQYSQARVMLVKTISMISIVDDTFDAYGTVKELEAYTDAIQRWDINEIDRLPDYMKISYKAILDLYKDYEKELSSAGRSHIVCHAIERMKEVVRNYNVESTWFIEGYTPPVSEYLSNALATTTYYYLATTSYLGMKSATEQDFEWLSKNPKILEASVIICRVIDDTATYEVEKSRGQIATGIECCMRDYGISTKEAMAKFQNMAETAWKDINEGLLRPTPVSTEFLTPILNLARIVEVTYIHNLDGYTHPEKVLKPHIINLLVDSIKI
Experimental: The in vitro activity of a purified EAS preparation (Back and Chappell, J. Biol. Chem. 270:7375-7381, 1995) was also measured at the indicated inhibitor concentrations as an additional test for non-specific effects of these inhibitors (circles).

[2] = tested on: 3-hydroxylase (5-epi-aristolochene to 1-deoxycapsidiol); settings: cited from earlier work
[3] = tested on: 5-epi-aristolochene hydroxylase (5EAH); experiment: In vivo 5-epi-aristolochene hydroxylase assay in elicitor-treated tobacco cell suspension cultures; settings: Nicotiana tabacum, read-out: inhibition of apparent activity of 5EAH
Experimental: (§1) The hexane solvent was removed under a gentle stream of N2 gas, and the dried residue was re-dissolved in acetone. […] Detection and quantification of capsidiol in the extracellular culture media was performed as reported previously (Chappell et al., Phytochemistry 26:2259-2260, 1987), and the amount of radioactivity incorporated into capsidiol was determined. For these determinations, samples were separated by TLC, and the zones corresponding to capsidiol were scraped from the plate for scintillation counting.
(§2) Inhibition studies were performed by the addition of the P450 inhibitors ancymidol (Coolbaugh et al., Plant Physiol. 62:571-576, 1978; Hoshino et al., Phytochemistry 38:609-613, 1995) and ketoconazole (Hoshino et al., Phytochemistry 38:609-613, 1995; Rademacher, Annu. Rev. Plant Physiol. Plant Mol. Biol. 51:501-531, 2000) directly to the cell cultures or enzyme assay mix. […] After a further 3 hour incubation period, the cells and media were collected. The amount of radioactivity incorporated into extracellular capsidiol was determined as described above. To evaluate secondary effects of these inhibitors, the level of inducible sesquiterpene cyclase activity in the collected cells was determined according to Vogeli et al. (Plant Physiol. 93:182-187, 1990), as well as in vitro assays with purified recombinant EAS (Back et al., Arch. Biochem. Biophys. 315:527-532, 1994) incubated with the indicated concentrations of ancymidol and ketoconazole.

[4] = tested on: 5-epi-aristolochene hydroxylase (5EAH)
Experimental: as §1, §2

[5] = tested on: induction of EAS in elicitor-treated cell cultures; experiment: Inducible sesquiterpene cyclase (EAS) activity in extracts of elicitor-treated cells; assay type: cell-based, Nicotiana tabacum; settings: 12 h with cellulase
[6] = concentrations as high as 100 μM
[7] = microsomes incubated with 5-epi-aristolochene

## C=C(C)[C@@H]1CC=C2CC[C@@H](O)[C@@H](C)[C@@]2(C)C1 [1-deoxycapsidiol]
CYP71D20
  metabolism by CYP71D20 microsomes (GC, GC-MS of products): metabolized to only one product with the same retention time as capsidiol

## C=C(C)[C@@H]1CC=C2CCC[C@@H](C)[C@@]2(C)C1 [5-epi-aristolochene]
CYP71D20
  metabolism by CYP71D20 microsomes (GC, GC-MS of products): metabolized to only one product with the same retention time as capsidiol

## COc1ccc(C(O)(c2cncnc2)C2CC2)cc1 (stereo not shown) [ancymidol]
[1]; [6]
  effect on in vitro activity of recombinant EAS: neither the in vitro activity of recombinant EAS nor the induction of EAS in the elicitor-treated cell cultures was significantly affected
[2]; [7]
  effect on 1-deoxycapsidiol accumulation in vitro: arrested
[3]
  inhibition at 75 µM: > 80%
[4]; 25 µM
  inhibition: ~50%
[5]; [6]
  effect on induction of EAS in elicitor-treated cell cultures: neither the in vitro activity of recombinant EAS nor the induction of EAS in the elicitor-treated cell cultures was significantly affected

## [C-]#[O+] [carbon monoxide]
[2]; [7]
  effect on 1-deoxycapsidiol accumulation in vitro: arrested

## CC(=O)N1CCN(c2ccc(OCC3COC(Cn4ccnc4)(c4ccc(Cl)cc4Cl)O3)cc2)CC1 (stereo not shown) [ketoconazole]
[1]; indicated inhibitor concentrations (FIG. 3B)
  effect on in vitro activity of EAS: does not appear to affect
[2]
  effect on 1-deoxycapsidiol accumulation in vitro: arrested
[4]; 25 µM
  inhibition: ~50%
[4]; 100 µM
  inhibition: 95%
[5]
  concentration at which inducibility of cyclase activity in elicitor-treated cell extracts was inhibited: above 50 μM
